Measured values as given in patent US11530186B2, “Inhibitors for the β-catenin / T-cell factor protein-protein interaction” (H. LEE MOFFITT CANCER CENTER AND RESEARCH INSTITUTE, INC., priority 2018, dated 2022).
Read-outs that look alike come from different tables or passages of the source.

Key:
[1] = target: T1, β-catenin/Tcf protein-protein interaction (Homo sapiens, UniProt P35222); assay: FP competitive inhibition assay; format: binding
T1 construct: Wild-type β-catenin (residues 138-781) were cloned into a pET-28b vector; 6×histidine (C); made in house; host or cells: E. coli BL21 DE3
T1 sequence (P35222 138-781): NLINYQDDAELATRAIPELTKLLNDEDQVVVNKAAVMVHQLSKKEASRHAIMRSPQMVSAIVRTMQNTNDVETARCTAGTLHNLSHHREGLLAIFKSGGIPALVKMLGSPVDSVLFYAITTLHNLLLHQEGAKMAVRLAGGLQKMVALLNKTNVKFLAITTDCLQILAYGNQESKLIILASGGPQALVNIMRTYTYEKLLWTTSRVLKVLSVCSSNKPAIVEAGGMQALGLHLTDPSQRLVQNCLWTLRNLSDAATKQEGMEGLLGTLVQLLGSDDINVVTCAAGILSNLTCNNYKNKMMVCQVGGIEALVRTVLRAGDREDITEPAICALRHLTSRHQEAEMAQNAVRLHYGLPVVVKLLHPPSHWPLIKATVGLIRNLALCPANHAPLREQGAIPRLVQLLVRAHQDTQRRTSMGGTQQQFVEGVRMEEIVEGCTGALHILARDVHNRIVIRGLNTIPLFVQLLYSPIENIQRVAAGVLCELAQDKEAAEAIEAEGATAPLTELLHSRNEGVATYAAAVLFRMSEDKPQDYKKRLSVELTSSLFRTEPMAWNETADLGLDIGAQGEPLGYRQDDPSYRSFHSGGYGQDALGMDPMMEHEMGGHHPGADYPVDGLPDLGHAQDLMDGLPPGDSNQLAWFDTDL
In short: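 His-tagged human β-catenin (residues 138-781, E. coli-expressed) at 10 nM with 2.5 nM fluorescein-labeled Tcf4 (7-51) in PBS-type buffer with bovine γ-globulin and 0.01% Triton X-100. Compounds added, 1.5 h at 4 °C, 1% DMSO, before fluorescence polarization read. IC50 by nonlinear fit; Ki derived from IC50.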

SW480 cells = assay: MTS cell viability assay, SW480; format: cell-based; conditions: mean ± SD (n = 3)
Protocol: (§1) MTS Cell Viability Assay. Colorectal cancer cells (SW480 and HCT116), TNBC cells (MDA-MB-231, MDA-MB-468, and BT-20), and lung cancer A549 cells were seeded in 96-well plates at 5×10^3 cells/well, maintained overnight at 37° C., and incubated with the tested compounds at various concentrations. Cell viability was monitored after 72 h using a freshly prepared mixture of 1 part phenazine methosulfate (PMS, Sigma) solution (0.92 mg/mL) and 19 parts 3-(4,5-dimethylthiazol-2-yl)-5-(3-carboxymethoxyphenyl)-2-(4-sulfophenyl)-2H-tetrazolium (MTS, Promega) solution (2 mg/mL). Cells were incubated in 10 μL of this solution at 37° C. for 3 h, and A490 was measured. The effect of each compound is expressed as the concentration required to reduce A490 by 50% (IC50) relative to DMSO-treated cells. Experiments were performed in triplicate.

A549 cells = assay: MTS cell viability assay, A549; format: cell-based; conditions: Homo sapiens, 72 h, mean ± SD (n = 3), Table 4, read-out: MTS cell viability IC50, Wnt normal A549
Protocol: as §1

[2] = system: Wnt/β-catenin transactivation; assay: Wnt-responsive TOPFlash luciferase reporter assay, β-catenin-activated HEK cells; format: cell-based; conditions: HEK293, read-out: TOPFlash IC50 ± SD, β-catenin-activated HEK293, 24 h treatment, mean ± SD (n = 3), read-out: TOPFlash IC50 ± SD, β-catenin-activated HEK239
Protocol: Cell Transfection and Luciferase Assay. FuGENE 6 (E2962, Promega) in the 96-well plate format was used for the transfection of HEK293 cells according to the manufacturer's instructions. HEK293 cells were co-transfected with 45 ng of the TOPFlash or FOPFlash reporter gene, and 135 ng of pcDNA3.1-β-catenin. Cells were cultured in DMEM and 10% fatal bovine serum (FBS) at 37° C. for 24 h, and different concentrations of inhibitors were then added. After 24 h, the luciferase reporter activity was measured using the Dual-Glo system (E2940, Promega). Normalized luciferase activity in response to the treatment with the inhibitors was compared with that obtained from the cells treated with DMSO. Experiments were performed in triplicate.

[3] = system: Wnt/β-catenin transactivation; assay: Wnt-responsive TOPFlash luciferase reporter assay, SW480; format: cell-based; conditions: Homo sapiens, mean ± SD (n = 3), Table 6
HCT116 cells = assay: MTS cell viability assay, HCT116; format: cell-based; conditions: Homo sapiens, HCT-116; 72 h; mean ± SD (n = 3); Table 5; read-out: MTS cell viability IC50, Wnt hyperactive cancer cells HCT116
Protocol: as §1

[4] = Assay 1, mean ± SD (n = 3), read-out: Ki ± SD, Assay 1
[5] = Assay 2, mean ± SD (n = 3), read-out: Ki ± SD, Assay 2
[6] = Assay 3, mean ± SD (n = 3), read-out: Ki ± SD, Assay 3
[7] = Homo sapiens, SW480, 72 h, Table 4, read-out: MTS cell viability IC50, Wnt hyperactive SW480 Cells (converted)
[8] = Homo sapiens, SW480, 72 h, Table 5, read-out: MTS cell viability IC50, Wnt hyperactive cancer cells SW480

## O=C(NCc1ccc(F)cc1)c1ccc2c(c1)c(CCc1ccc(F)cc1)c(CCc1nc3ccccc3s1)n2CCc1nn[nH]n1 [Compound 44, 1-(2-(2H-tetrazol-5-yl)ethyl)-2-(2-(benzo[d]thiazol-2-yl)ethyl)-N-(4-fluorobenzyl)-3-(4-fluoro-phenethyl)-1H-indole-5-carboxamide]
[1]; [4]
  Ki: 1.6 ± 0.37 µM
[1]; [5]
  Ki: 0.35 ± 0.15 µM
[1]; [6]
  Ki: 1.3 ± 0.37 µM
[1]; Assay 4, mean ± SD (n = 3), read-out: Ki ± SD, Assay 4
  Ki: 0.92 ± 0.06 µM
SW480 cells; [7]
  IC50: 12 ± 1.4 µM
A549 cells
  IC50: 42 ± 5.8 µM
[2]; Table 6
  IC50: 42 ± 5.8 µM
[3]
  IC50: 12 ± 1.3 µM

## COc1ccc2sc(CCc3c(CCc4ccc(Cl)cc4)c4cc(C(=O)OCc5ccc(Cl)cc5)ccc4n3CCc3nn[nH]n3)nc2c1 [Compound 70, 4-Chlorobenzyl 1-(2-(2H-tetrazol-5-yl)ethyl)-3-(4-chlorophenethyl)-2-(2-(5-methoxybenzo-[d]thiazol-2-yl)ethyl)-1H-indole-5-carboxylate]
[1]; [4]
  Ki: 2.6 ± 0.57 µM
[1]; [5]
  Ki: 0.22 ± 0.06 µM
[1]; [6]
  Ki: 2.6 ± 0.32 µM
SW480 cells; [7]
  IC50: 160 ± 17 µM
A549 cells
  IC50: 310 ± 27 µM

## Cc1ccc(CCc2c(-c3ccsc3)n(CCc3nn[nH]n3)c3ccc(C(=O)NOC4CCCCO4)cc23)cc1 (stereo not shown) [Compound 92, 1-(2-(2H-tetrazol-5-yl)ethyl)-3-(4-methylphenethyl)-N-((tetrahydro-2H-pyran-2-yl)oxy)-2-(thiophen-3-yl)-1H-indole-5-carboxamide]
[1]; [4]
  Ki: 10 ± 1.6 µM
SW480 cells; [8]
  IC50: 81 ± 17 µM
[2]; Table 7
  IC50: 50 ± 5.7 µM

## Cc1ccc(CCc2c(-c3csc(C(F)F)c3)n(CCc3nn[nH]n3)c3ccc(C(=O)NCc4ccon4)cc23)cc1 [Compound 94, 1-(2-(2H-tetrazol-5-yl)ethyl)-2-(5-(difluoromethyl)thiophen-3-yl)-N-(isoxazol-3-ylmethyl)-3-(4-methylphenethyl)-1H-indole-5-carboxamide]
[1]; [4]
  Ki: 2.7 ± 0.26 µM
[1]; [5]
  Ki: 4.9 ± 0.36 µM
[1]; [6]
  Ki: 26 ± 2.7 µM
SW480 cells; [8]
  IC50: 32 ± 3.6 µM
HCT116 cells
  IC50: 46 ± 5.3 µM
[2]; Table 7
  IC50: 9.9 ± 1.5 µM

## COC(=O)c1ccc2c(c1)c(CCc1ccc(Cl)cc1)c(CCc1nc3cc(OC)ccc3s1)n2CCc1nn[nH]n1 [Compound 35, Methyl 1-(2-(2H-tetrazol-5-yl)ethyl)-3-(4-chlorophenethyl)-2-(2-(5-methoxybenzo[d]thiazol-2-yl)ethyl)-1H-indole-5-carboxylate]
[1]; [4]
  Ki: 4.1 ± 1.1 µM
SW480 cells; 72 h, Table 4, read-out: MTS cell viability IC50, Wnt hyperactive SW480 Cells (converted)
  IC50: 3.2 µM
SW480 cells; [7]
  IC50: 3.1 ± 1.8 µM
A549 cells
  IC50: 13 ± 5.9 µM
[2]; Table 6
  IC50: 11 ± 2.3 µM
[3]
  IC50: 4.3 ± 1.2 µM
